The values that follow come from patent EP2664616A1, “Hydantoin and thiohydantoin derivatives as antiviral drugs” (priority 2012, dated 2013).

The EC50 is the midpoint of the concentration-response curve.

In this assay the test system is HCV replicon Luc Neo ET. Description: HCV replication inhibition assay (replicon assay, luciferase reporter). It is filed as cell-based. The note with it: Hepatitis C virus; Huh-7 cell lines containing HCV replicon Luc Neo ET; 72 hours with compound; 1 % DMSO; firefly luciferase reporter; concentration that produces 50 % of replication inhibition; read-out: EC50 Replicon LucneoET. The procedure:
The compounds according to the present invention were tested for their ability to inhibit HCV replication as follows:
Huh-7 cell lines containing HCV replicon Luc Neo ET (Reblikon) were maintained in DMEM supplemented with 10% SVF, 2 mM glutamine, and 1 X NEAA, 100 U / ml penicillin, and 100 µg / ml streptomycine. Cells were maintained in medium supplemented with 0.5 mg/ml G418, at 37°C and 5% CO2 in a humidified atmosphere. Cells were dissociated at sub confluence with trypsin EDTA 1X.
Replicon Luc Neo ET is bicistronic expression constructs (Lohmann et al, 1999, Science 285, 110-113). In brief, the structural genes of the HCV genome were replaced by heterologous sequences; the gene encoding the neomycin phosphotransferase (NPT) and the internal ribosome entry site (IRES) of the encephalomyocarditis virus (EMCV). The bicistronic construct is therefore composed of the following elements: HCV-IRES nucleotides 1-389 for Luc Neo ET, the NPT gene, the EMCV-IRES directing translation of downstream HCV sequences from NS2 or NS3 up to the authentic 3' end of the genome. HCV Polyprotein of Luc Neo ET replicon harbours the cell culture adaptive mutations E1202G, T1280I, K1846T. G418-resistance is only possible with cells containing high amounts of replicon.
Cells were dissociated the day before addition of compounds and seeded in 96 well-plates at a final concentration of 27 777.77 cells.ml^-1.cm^-2 in 90µl final volume of culture medium per well and were maintained at 37°C and 5% CO2 in a humidified atmosphere for 24 hours. 10 µl of compounds to be tested were added 24 hours after seeding. Final concentration of DMSO was 1 %. Cells were incubated in the presence of compounds for 72 hours after which expression of firefly luciferase reporter gene was quantified. Briefly, culture medium was removed and cells were lysed by addition of 100 µl of lysis buffer containing 125 mM Tris Phosphate ph 7.8, 10 mM EDTA, 5 mM DTT, 50 % glycerol and 5 % Triton. Plates were vortexed 10 min at 1300 rpm. 100µl of luciferin solution 1X were added to each well. Luciferin solution contained 40 mM Tris Phosphate ph 7.8, 0.2 mM EDTA, 67 mM DTT, 2.14 mM MgCl2, 5.4 mM MgSO4, 4.7 x 10^-4 M luciferin, 5.3 x 10^-4 M ATP and 2.7 x 10^-4 M Acetyl co enzyme A. Luminescence was immediately measured with Berthold Microlumat Plus LB 96V luminometer with an integration of 1 sec. Inhibition was calculated using the formula: % inhibition = 1-[(RLUsample-RLUbackground)/(RLUsignal-RLUbackground)].
The Table 1 below illustrates data on the biological activity of compounds of the present invention. Results are expressed as EC50 which is the concentration that produces 50 % of replication inhibition. Table 1. HCV replication inhibition assay
A general note: In antiviral work, replicon cells carry a viral genome segment that copies itself.

On to `COc1ccc(NC(=O)CC2C(=O)N(c3ccc(F)cc3)C(=S)N2CCc2cccs2)cc1` (stereo not shown) [Example 46, 2-[1-(4-fluorophenyl)-5-oxo-2-sulfanylidene-3-[2-(thiophen-2-yl)ethyl]imidazolidin-4-yl]-N-(4-methoxyphenyl)acetamide], for which the EC50 was less than 500 nM. The value for `COc1ccc(NC(=O)CC2C(=O)N(c3ccc(F)cc3)C(=S)N2CCc2ccc(N(C)C)cc2)cc1` (stereo not shown) [Example 47, 2-(3-{2-[4-(dimethylamino)phenyl]ethyl}-1-(4-fluorophenyl)-5-oxo-2-sulfanylideneimidazolidin-4-yl)-N-(4-methoxyphenyl)acetamide] was less than 500 nM. `CN(C)c1ccc(NC(=O)CC2C(=O)N(c3ccc(F)cc3)C(=S)N2CCc2cccs2)cc1` (stereo not shown) [Example 48, N-[4-(dimethylamino)phenyl]-2-[1-(4-fluorophenyl)-5-oxo-2-sulfanylidene-3-[2-(thiophen-2-yl)ethyl]imidazolidin-4-yl]acetamide]: the EC50 is less than 500 nM. To `CN(C)c1ccc(CCN2C(=O)N(c3ccc(F)cc3)C(=O)C2CC(=O)Nc2ccc(N(C)C)cc2)cc1` (stereo not shown) [Example 49, N-[4-(dimethylamino)phenyl]-2-(3-{2-[4-(dimethylamino)phenyl]ethyl}-1-(4-fluorophenyl)-2,5-dioxoimidazolidin-4-yl)acetamide] belongs less than 500 nM; to `COc1ccc(CCN2C(=S)N(c3ccccc3)C(=O)C2CC(=O)Nc2ccc(N(C)C)cc2)cc1` (stereo not shown) [Example 51, N-[4-(dimethylamino)phenyl]-2-{3-[2-(4-methoxyphenyl)ethyl]-5-oxo-1-phenyl-2-sulfanylideneimidazolidin-4-yl}acetamide], less than 500 nM. The value for `COc1ccc(NC(=O)CC2C(=O)N(c3ccc(F)cc3)C(=S)N2CCc2ccc(N3CCOCC3)cc2)cc1` (stereo not shown) [Example 52, 2-[1-(4-fluorophenyl)-3-{2-[4-(morpholin-4-yl)phenyl]ethyl}-5-oxo-2-sulfanylideneimidazolidin-4-yl]-N-(4-methoxyphenyl)acetamide] was less than 500 nM; that for `COCCOc1ccc(NC(=O)CC2C(=O)N(c3ccc(F)cc3)C(=S)N2CCc2ccc(OC)cc2)cc1` (stereo not shown) [Example 53, 2-[1-(4-fluorophenyl)-3-[2-(4-methoxyphenyl)ethyl]-5-oxo-2-sulfanylideneimidazolidin-4-yl]-N-[4-(2-methoxyethoxy)phenyl]acetamide] was less than 500 nM; that for `COc1ccc(CCN2C(=S)N(c3ccc(F)cc3)C(=O)C2CC(=O)Nc2ccc(OC(C)C)cc2)cc1` (stereo not shown) [Example 54, 2-[1-(4-fluorophenyl)-3-[2-(4-methoxyphenyl)ethyl]-5-oxo-2-sulfanylideneimidazolidin-4-yl]-N-[4-(propan-2-yloxy)phenyl]acetamide] was less than 500 nM. The value for `COc1ccc(CCN2C(=S)N(c3ccncc3)C(=O)C2CC(=O)Nc2ccc(OC)cc2)cc1` (stereo not shown) [Example 55, N-(4-methoxyphenyl)-2-{3-[2-(4-methoxyphenyl)ethyl]-5-oxo-1-(pyridin-4-yl)-2-sulfanylideneimidazolidin-4-yl}acetamide] was less than 5000 nM; that for `O=C(CC1C(=O)N(c2ccccc2)C(=S)N1CCc1ccc(Cl)cc1)Nc1ccccn1` (stereo not shown) [Example 57, 2-{3-[2-(4-chlorophenyl)ethyl]-5-oxo-1-phenyl-2-sulfanylideneimidazolidin-4-yl}-N-(pyridin-2-yl)acetamide] was less than 500 nM; that for `COc1ccc(NC(=O)CC2C(=O)N(c3ccccc3)C(=S)N2CCc2ccc(Cl)cc2)cn1` (stereo not shown) [Example 59, 2-{3-[2-(4-chlorophenyl)ethyl]-5-oxo-1-phenyl-2-sulfanylideneimidazolidin-4-yl}-N-(6-methoxypyridin-3-yl)acetamide] was less than 5000 nM. On to `COc1ccc(NC(=O)CC2C(=O)N(c3ccccc3)C(=S)N2CCc2ccc(Cl)cc2)nc1` (stereo not shown) [Example 61, 2-{3-[2-(4-chlorophenyl)ethyl]-5-oxo-1-phenyl-2-sulfanylideneimidazolidin-4-yl}-N-(5-methoxypyridin-2-yl)acetamide], for which the EC50 is less than 500 nM. On to `O=C(CC1C(=O)N(c2ccccc2)C(=S)N1CCc1ccc(Cl)cc1)Nc1ccon1` (stereo not shown) [Example 64, 2-{3-[2-(4-chlorophenyl)ethyl]-5-oxo-1-phenyl-2-sulfanylideneimidazolidin-4-yl}-N-(1,2-oxazol-3-yl)acetamide], for which the EC50 is less than 5000 nM. The value for `COc1ccc(NC(=O)CC2C(=O)N(c3ccc(F)cc3)C(=S)N2CCc2ccc(Cl)cc2)nc1` (stereo not shown) [Example 66, 2-{3-[2-(4-chlorophenyl)ethyl]-1-(4-fluorophenyl)-5-oxo-2-sulfanylideneimidazolidin-4-yl}-N-(5-methoxypyridin-2-yl)acetamide] was less than 500 nM; that for `COc1ccc(CCN2C(=S)N(c3ccccc3)C(=O)C2CC(=O)Nc2ccc(C)nn2)cc1` (stereo not shown) [Example 68, 2-{3-[2-(4-methoxyphenyl)ethyl]-5-oxo-1-phenyl-2-sulfanylideneimidazolidin-4-yl}-N-(6-methylpyridazin-3-yl)acetamide] was less than 30000 nM; that for `COc1ccc(CCN2C(=S)N(c3ccccc3)C(=O)C2CC(=O)Nc2ccc(OC)nn2)cc1` (stereo not shown) [Example 69, 2-{3-[2-(4-methoxyphenyl)ethyl]-5-oxo-1-phenyl-2-sulfanylideneimidazolidin-4-yl}-N-(6-methoxypyridazin-3-yl)acetamide] was less than 5000 nM. In the case of `COc1ccc(CCN2C(=O)N(c3ccc(F)cc3)C(=O)C2CC(=O)Nc2ccc(OC)nn2)cc1` (stereo not shown) [Example 71, 2-[1-(4-fluorophenyl)-3-[2-(4-methoxyphenyl)ethyl]-2,5-dioxoimidazolidin-4-yl]-N-(6-methoxypyridazin-3-yl)acetamide], the EC50 was less than 30000 nM. For `COc1ccc(CCN2C(=O)N(c3ccc(F)cc3)C(=O)C2CC(=O)Nc2ccc(OC)cn2)cc1` (stereo not shown) [Example 72, 2-[1-(4-fluorophenyl)-3-[2-(4-methoxyphenyl)ethyl]-2,5-dioxoimidazolidin-4-yl]-N-(5-methoxypyridin-2-yl)acetamide], the half-maximal effective concentration (EC50) is less than 5000 nM. The value for `COc1ccc(CCN2C(=O)N(c3ccc(F)cc3)C(=O)C2CC(=O)Nc2ccc(N(C)C)cn2)cc1` (stereo not shown) [Example 73, N-[5-(dimethylamino)pyridin-2-yl]-2-[1-(4-fluorophenyl)-3-[2-(4-methoxyphenyl)ethyl]-2,5-dioxoimidazolidin-4-yl]acetamide] was less than 500 nM; that for `COc1ccc(CCN2C(=O)N(c3ccc(F)cc3)C(=O)C2CC(=O)Nc2ccc(C)nn2)cc1` (stereo not shown) [Example 74, 2-[1-(4-fluorophenyl)-3-[2-(4-methoxyphenyl)ethyl]-2,5-dioxoimidazolidin-4-yl]-N-(6-methylpyridazin-3-yl)acetamide] was less than 30000 nM; that for `COc1ncc(NC(=O)CC2C(=O)N(c3ccc(F)cc3)C(=O)N2CCc2ccc(N(C)C)cc2)cn1` (stereo not shown) [Example 78, 2-(3-{2-[4-(dimethylamino)phenyl]ethyl}-1-(4-fluorophenyl)-2,5-dioxoimidazolidin-4-yl)-N-(2-methoxypyrimidin-5-yl)acetamide] was less than 30000 nM. The value for `COc1ncc(NC(=O)CC2C(=O)N(c3ccc(F)cc3)C(=S)N2CCc2ccc(N(C)C)cc2)cn1` (stereo not shown) [Example 79, 2-(3-{2-[4-(dimethylamino)phenyl]ethyl}-1-(4-fluorophenyl)-5-oxo-2-sulfanylideneimidazolidin-4-yl)-N-(2-methoxypyrimidin-5-yl)acetamide] was less than 5000 nM.
